Test results taken from paper PMC8708274, “Unveiling the Membrane and Cell Wall Action of Antimicrobial Cyclic Lipopeptides: Modulation of the Spectrum of Activity” (Pharmaceutics, 2021).
Read-outs that look alike come from different tables or passages of the source. Positions of bridges follow the written chain, without caps; N, C: chain ends. Non-standard residues stand in square brackets, D forms with d. Residues, ends and D or L forms follow the SMILES beside them. *: point of attachment. dAoc(2) = CCCCCC[C@@H](N)C(=O)O; Heptanoyl = CCCCCCC(=O)*; Nle = CCCC[C@H](N)C(=O)O; Dab = NCC[C@H](N)C(=O)O

What was measured:
[1] = test system: Escherichia coli ATTC 25922; type: cell-based
[2] = test system: Pseudomonas aeruginosa ATTC 27853; type: cell-based
[3] = test system: Staphylococcus aureus ATTC 25923; type: cell-based
[4] = Kinetics of insertion into monolayers; type: binding, Salmonella enterica serotype Minnesota Re 595; conditions: initial pressure 32 mN·m^−1, peptide 0.48 μM, 25 min after injection, 10 mM Tris pH 7.4, 25 °C, average of three independent experiments (error < 10%)
[5] = Kinetics of insertion into monolayers; type: binding; conditions: 25 min after injection, 10 mM Tris pH 7.4, 25 °C, average of three independent experiments (error < 10%)
ANTS/DPX vesicle leakage = conditions: 0.9 µM peptide (0.8% peptide mol fraction), lipid 107 µM, 25 °C, 10 mM Tris pH 7.4, ANTS fluorescence
Procedure: Large unilamellar vesicles (LUVs) of POPG, POPE/POPG (6:4), or POPC, alone or with the fluorescently labeled phospholipids NBD-PE or Rh-PE, were prepared by the evaporation of a mixture of the lipids and probes in CHCl3. The solvent was removed by a gentle stream of nitrogen gas followed by overnight storage under vacuum. The dried films were hydrated with Tris 10 mM pH 7.4 to the desired final lipid concentration and then sonicated in a bath type sonicator (Lab Supplies, Hickesville, NY, Model G112SPIT) until a clear dispersion was obtained (typically 3–5 min). […] The average diameter was determined by dynamic light scattering with a Malvern II-C Autosizer, with a z-diameter between 111 and 117 nm, and a polydispersity of 0.1. […] Moreover, they contained 0.2% Rh-PE for monitoring the fluorescence before and after the separation of the unencapsulated material, which was carried out by gel filtration on a Sephadex G-50 column eluted with 10 mM Tris 80 mM NaCl. In this way, the final lipid concentration was calculated taking into account the loss of lipid and the dilution of the sample.
To assess the leakage of co-encapsulated ANTS and DPX vesicles due to their interaction with peptides, fluorescence measurements were carried out at 25 °C in 1.5 mL 10 mM Tris buffer pH 7.4 on a SLM-Aminco AB-2 spectrofluorimeter with constant stirring. […]

P. aeruginosa = assay: Transmission electron microscopy of treated bacteria; type: cell-based, Pseudomonas aeruginosa; conditions: 1xMIC, 2 h, room temperature, tryptone water
Procedure: (§1) Then, 500 µL of this culture were added to 50 mL of tryptone water for a concentration of ≈10^8 bacteria·mL^−1. Aliquots of 10 mL were incubated with the lipopeptide at the desired concentration for 2 h at room temperature, and bacterial cells were collected by centrifugation (12,857 g, 20 min). Samples were fixed with 2.5% glutaraldehyde in phosphate buffer for 2 h at 4 °C, washed with the same buffer, and post fixed with 1% osmium tetroxide in buffer containing 0.8% potassium ferricyanide at 4 °C. Then, the samples were dehydrated for 1 h in acetone, infiltrated in a graded series of Epon resin (Ted pella, Inc., Redding, CA, USA) during 2 days, and finally embedded in fresh Epon resin and polymerized at 60 °C during 48 h. Ultrathin sections were obtained using a Leica Ultracut UCT ultramicrotome (Leica, Vienna, Austria) and mounted on Formvar-coated copper grids. Sections were stained with 2% aqueous uranyl acetate and lead citrate and examined in a JEM-1010 electron microscope (Jeol, Tokyo, Japan).

E. coli = assay: as above; type: cell-based, Escherichia coli; conditions: 1xMIC, 2 h, room temperature, tryptone water
Procedure: as §1

[6] = broth microdilution, MHB, 5 × 10^5 CFU/mL, overnight 37 °C, triplicate, higher of the three

CCCCCCC(=O)N[C@@H](CCN)C(=O)N[C@H](C(=O)N[C@@H](CCN)C(=O)N[C@H]1CSSC[C@H](C(N)=O)NC(=O)[C@H](CCN)NC(=O)[C@H](CCN)NC(=O)[C@H](CCCC)NC(=O)[C@@H](CCCCCC)NC(=O)[C@H](CCN)NC1=O)[C@@H](C)O [spE-10] (Heptanoyl-[Dab]T[Dab]C[Dab][dAoc(2)][Nle][Dab][Dab][dC]-NH2; disulfide 4-10)
MIC EC ([1]; ATTC 25922): 6.7 µM | MIC EC [1, 6]: 8 µg/mL | MIC PA ([2]; ATTC 27853): 0.84 µM | MIC PA [2, 6]: 1 µg/mL | MIC SA ([3]; ATTC 25923): > 27 µM | MIC SA [3, 6]: > 32 µg/mL | Increase in surface pressure (Δπ), LPS [4]: 14.8 mN·m^−1 | Increase in surface pressure (Δπ), POPE/POPG ([5]; POPE/POPG 6:4, initial pressure 32 mN·m^−1, peptide 0.48 μM): 8.2 mN·m^−1 | Increase in surface pressure (Δπ), POPC ([5]; initial pressure 32 mN·m^−1, peptide 0.48 μM): 1.8 mN·m^−1 | leakage from PE/PG vesicles (ANTS/DPX vesicle leakage): no detectable leakage | ultrastructural effect on P. aeruginosa (TEM) (P. aeruginosa): significant rupture of the cell membranes and cytoplasmic clear zones | ultrastructural effect on E. coli (TEM) (E. coli): formation of intracellular membranous structures and cytoplasmic clear zones
